# Patent US20230203081A1, “LINCOSAMIDE ANTIBIOTICS AND USES THEREOF” (President and Fellows of Harvard College, priority 2020, published 2023)
# Read-outs that look alike come from different tables or passages of the source.
# Columns and labels:
# Format in all cases: cell-based
# [1] = system: broad panel of different clinical isolates; assay: microbe, parasite or virus in culture
# Method in brief: (§1)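 Isolates other than streptococci and anaerobes, which had their own procedures, were grown overnight at 35° C on tryptic soy agar with 5% sheep blood. Suspensions were then diluted to a final inoculum of 5×10^5 CFU/mL in broth microdilution wells.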
# E. coli armA = assay: microbe, parasite or virus in culture; settings: Escherichia coli
# Method in brief: as §1
# [2] = system: S. pyogenes MMX 946; cErmB; assay: MIC (broth microdilution or agar dilution, CLSI); settings: for MIC: cErmB
# Method in brief: as §1
# S. pneumoniae ATCC 49619 = assay: MIC (broth microdilution or agar dilution, CLSI); settings: Streptococcus pneumoniae, ATCC49619, S. pneumoniae HAV#003, ATCC 49619; read-out: MIC
# Method in brief: as §1
# K. pneumoniae ATCC 10031 = assay: MIC (broth microdilution or agar dilution, CLSI); settings: Klebsiella pneumoniae, ATCC10031, K. pneumoniae HAV#008, ATCC 10031; read-out: MIC
# Method in brief: as §1
# [3] = system: S. pneumoniae MMX 3028 cErmB; assay: MIC (broth microdilution or agar dilution, CLSI)
# Method in brief: as §1
# [4] = system: S. pneumoniae MMX 3031 cMefA; assay: MIC (broth microdilution or agar dilution, CLSI); settings: Streptococcus pneumoniae, MMX3031CMEFA, read-out: MIC
# Method in brief: as §1
# [5] = system: S. aureus ATCC BAA-1707 (MRSA); assay: MIC (broth microdilution or agar dilution, CLSI)
# Method in brief: as §1
# S. aureus ATCC 700699 = assay: MIC (broth microdilution or agar dilution, CLSI); settings: Staphylococcus aureus, read-out: MIC
# Method in brief: as §1
# E. coli ATCC 25922 = assay: MIC (broth microdilution or agar dilution, CLSI)
# Method in brief: as §1
# S. pneumoniae ATCC 6303 = assay: MIC (broth microdilution or agar dilution, CLSI)
# Method in brief: as §1
# S. aureus ATCC 29213 = assay: MIC (broth microdilution or agar dilution, CLSI); settings: Staphylococcus aureus, read-out: MIC
# Method in brief: as §1
# S. pyogenes ATCC 19615 = assay: MIC (broth microdilution or agar dilution, CLSI); settings: Streptococcus pyogenes, read-out: MIC
# Method in brief: as §1
# S. aureus MMX 3035 cErmA = assay: MIC (broth microdilution or agar dilution, CLSI)
# Method in brief: as §1
# E. faecalis ATCC 29212 = assay: MIC (broth microdilution or agar dilution, CLSI); settings: Enterococcus faecalis, read-out: MIC
# Method in brief: as §1
# E. coli LptD = assay: MIC (broth microdilution or agar dilution, CLSI); settings: Escherichia coli, read-out: MIC
# Method in brief: as §1
# S. aureus hVISA = assay: MIC (broth microdilution or agar dilution, CLSI)
# Method in brief: as §1
# K. oxytoca Clinical = assay: MIC (broth microdilution or agar dilution, CLSI)
# Method in brief: as §1
# [6] = system: E. faecalis MMX 847; cErmB; assay: MIC (broth microdilution or agar dilution, CLSI); settings: cErmB
# Method in brief: as §1
structure (smiles),measurement,setting,value
CSC1O[C@H]([C@H](NC(=O)[C@H]2NC[C@@H]3C[C@H](CC(C)C)CCO[C@H]32)[C@H](C)Cl)C(O)[C@@H](O)[C@H]1O (stereo partly shown) [FSA-513018b],MIC,"[1]; Staphylococcus aureus, S. aureus HAV#211, Clinical",2 µg/mL
same,MIC,"[1]; Staphylococcus aureus, S. aureus HAV#212, Clinical",0.06 µg/mL
same,MIC,"[1]; Staphylococcus aureus, S. aureus HAV#213, Clinical",0.06 µg/mL
same,MIC,"[1]; Staphylococcus aureus, S. aureus HAV#214, Clinical",0.03 µg/mL
same,MIC,"[1]; Staphylococcus aureus, S. aureus HAV#215, Clinical",0.06 µg/mL
same,MIC,"[1]; Staphylococcus aureus, S. aureus HAV#216, Clinical, cfr",2 µg/mL
same,MIC,"[1]; Staphylococcus aureus, VISA, S. aureus HAV#203, Clinical (VISA)",1 µg/mL
same,MIC,"[1]; Staphylococcus epidermidis, S. epidermidis HAV# 275 Clinical, cfr",8 µg/mL
same,MIC,"[1]; Staphylococcus epidermidis, S. epidermidis HAV# 276, cfr",> 16 µg/mL
same,MIC,"[1]; Staphylococcus epidermidis, S. epidermidis HAV#277, Line R",16 µg/mL
same,MIC,"[1]; Staphylococcus epidermidis, S. epidermidis HAV#278 Line R",32 µg/mL
same,MIC,"[1]; Staphylococcus epidermidis, S. epidermidis HAV#279, Line R",0.125 µg/mL
same,MIC,"[1]; Staphylococcus haemolyticus, S. haemolyticus 5052, Line R & Methicillin R",0.06 µg/mL
same,MIC,"[1]; Staphylococcus haemolyticus, S. haemolyticus HAV#252, Line R & Methicillin R",0.125 µg/mL
same,MIC,"[1]; Streptococcus pneumoniae, ATCC700673, S. pneumoniae HAV#352, ATCC 700673, MDR",0.5 µg/mL
same,MIC,"[1]; Streptococcus pneumoniae, ATCCBAA255, S. pneumoniae HAV#354, ATCC-BAA-255",0.125 µg/mL
same,MIC,"[1]; Streptococcus pneumoniae, ATCCBAA334, S. pneumoniae HAV#353, ATCC-BAA-334",0.125 µg/mL
same,MIC,"[1]; Streptococcus pneumoniae, S. pneumoniae HAV#356, Clinical",0.25 µg/mL
same,MIC,"[1]; Streptococcus pneumoniae, S. pneumoniae HAV#358, Clinical",0.125 µg/mL
same,MIC,"E. coli armA; E. coli HAV#056, Clinical, armA",8 µg/mL
same,MIC,E. coli armA; E. coli armA,8 µg/mL
same,MIC,"[2]; S. pyogenes HAV#035, MMX 946, mac-resistant",0.25 µg/mL
same,MIC lower than that of clindamycin (fold),"[2]; S. pyogenes, c-ermB-mediated resistance","≥ 1,000 ×"
same,MIC,"[2]; Streptococcus pyogenes, S. pyogenes MMX 946, read-out: MIC",0.25 µg/mL
same,MIC,S. pneumoniae ATCC 49619,0.015 µg/mL
same,MIC,K. pneumoniae ATCC 10031,0.25 µg/mL
same,MIC,"[3]; S. pneumoniae HAV#033, MMX 3028, cErmB",0.25 µg/mL
same,MIC lower than that of clindamycin (fold),"[3]; S. pneumoniae, c-ermB-mediated resistance","≥ 1,000 ×"
same,MIC,"[3]; Streptococcus pneumoniae, MMX3028CERMB, S. pneumoniae MMX 3028 cErmB, read-out: MIC",0.25 µg/mL
same,MIC,"[4]; S. pneumoniae HAV#034, MMX 3031, cMefA",0.03 µg/mL
same,MIC,[4]; S. pneumoniae MMX 3031 cMefA,≤ 0.06 µg/mL
same,MIC,"[5]; S. aureus HAV#016, ATCC BAA-1707, MRSA",0.06 µg/mL
same,MIC,"[5]; Staphylococcus aureus, S. aureus ATCC BAA-1707 (MRSA), read-out: MIC",0.06 µg/mL
same,MIC,"S. aureus ATCC 700699; ATCC700699, S. aureus ATCC 700699",2 µg/mL
same,MIC,"S. aureus ATCC 700699; S. aureus HAV#202, ATCC 700699 (VISA)",2 µg/mL
same,MIC,"E. coli ATCC 25922; E. coli HAV#006, ATCC 25922",8 µg/mL
same,MIC,"E. coli ATCC 25922; Escherichia coli, ATCC25922, E. coli ATCC 25922, read-out: MIC",8 µg/mL
same,MIC,"S. pneumoniae ATCC 6303; S. pneumoniae HAV#351, ATCC 6303",0.03 µg/mL
same,MIC,"S. pneumoniae ATCC 6303; Streptococcus pneumoniae, ATCC6303, S. pneumoniae ATCC 6303, read-out: MIC",0.03 µg/mL
same,MIC,"S. aureus ATCC 29213; ATCC29213, S. aureus ATCC 29213",≤ 0.06 µg/mL
same,MIC,"S. aureus ATCC 29213; ATCC29213, S. aureus HAV#001, ATCC 29213, MP-549",0.06 µg/mL
same,MIC,"S. pyogenes ATCC 19615; ATCC19615, S. pyogenes ATCC 19615",≤ 0.06 µg/mL
same,MIC,"S. pyogenes ATCC 19615; ATCC19615, S. pyogenes HAV#004, ATCC 19615",0.03 µg/mL
same,MIC,"S. aureus MMX 3035 cErmA; S. aureus HAV#031, MMX 3035, cErmA",4 µg/mL
same,MIC,"S. aureus MMX 3035 cErmA; Staphylococcus aureus, MMX3035CERMA, S. aureus MMX 3035 cErmA, read-out: MIC",4 µg/mL
same,MIC,"E. faecalis ATCC 29212; ATCC29212, E. faecalis ATCC 29212",≤ 0.06 µg/mL
same,MIC,"E. faecalis ATCC 29212; ATCC29212, E. faecalis HAV#005, ATCC 29212",0.06 µg/mL
same,MIC,"E. coli LptD; E. coli HAV#040, LptD",1 µg/mL
same,MIC,E. coli LptD; E. coli LptD,1 µg/mL
same,MIC,"S. aureus hVISA; S. aureus HAV#204, hVISA",1 µg/mL
same,MIC,"S. aureus hVISA; Staphylococcus aureus, S. aureus hVISA, read-out: MIC",1 µg/mL
same,MIC,"K. oxytoca Clinical; K. oxytoca HAV#450, Clinical",8 µg/mL
same,MIC,"K. oxytoca Clinical; Klebsiella oxytoca, K. oxytoca Clinical, read-out: MIC",8 µg/mL
same,MIC,"[6]; E. faecalis HAV#036, MMX 847, mac-resistant",1 µg/mL
same,MIC,"[6]; Enterococcus faecalis, E. faecalis MMX 847, read-out: MIC",1 µg/mL
